Reference: article PMC11276849, “A Female-Biased Chemosensory Protein PxutCSP19 in the Antennae of Papilio xuthus Tuned to Host Volatiles and Insecticides” (Insects, 2024)
Where two headings read alike, the source gives them in different places.

Biological target: PxutCSP19 (Papilio xuthus, UniProt A0A194QJK0)
Test: Fluorescence competitive binding assay (1-NPN displacement), wildtype PxutCSP19
Details: for inhibition at 20 µM: read-out: F.D. (fluorescent displacement rate of ligands), Wildtype (WT); for inhibition at 20 µM / F.D. (fluorescent displacement rate of ligands): ligand at 20 μM, PxutCSP19/1-NPN each 2 μM, NB = no binding; for 1-NPN fluorescence displaced / binding with PxutCSP19 (in words): wildtype; for 1-NPN fluorescence displaced: ligand at 36 μM
Excerpt: The open reading frame (ORF) of PxutCSP19 was cloned with a PrimeSTAR®® Max DNA Polymerase (TaKaRa, Liaoning, Dalian, China) and gene-specific primers containing restriction enzyme sites (BamH I and Xho I) (Table S2). The PCR products were detected on a 1.5% (w/v) agarose gel, and the expected bands were cut and purified using a HiPure Gel Pure DNA Mini Kit (Magen, Guangzhou, China). Next, BamH I and Xho I were used to digest the PxutCSP19 products and pET-30a (+) plasmids, followed by purification. A T4 DNA ligase (Thermo Fisher Scientific, Waltham, MA, USA) was applied to the construction of the recombinant plasmids pET-30a (+)/PxutCSP19. After being confirmed by sequencing, the plasmids were transformed into BL21 (DE3) competent cells so as to express recombinant proteins with 1.0 mM isopropyl β-D-thiogalactoside (IPTG). Because this recombinant protein pET-30a (+)/PxutCSP19 was insoluble, we applied a protein denaturation–renaturation approach to purify PxutCSP19 with an affinity chromatography technique, in which the denaturation buffer included 8 M urea and 1.0 mM β-mercaptoethanol.
In order to investigate the ligand-binding properties of PxutCSP19 to host odorants and insecticides, we first asked whether this fluorescent probe 1-NPN was available for the binding of PxutCSP19. To calculate the binding ability of PxutCSP19 to 1-NPN, we titrated different final concentrations of 1-NPN (2~20 μM) into Tris-HCl buffer (pH 7.4) containing 2 μM PxutCSP19. The binding constant (K1-NPN) of 1-NPN to this protein was determined with GraphPad Prism 7 (GraphPad Software Inc., San Diego, CA), as previously described. The solution was excited at 337 nm and the emission peak was monitored at 414 nm on an RF-5301PC spectrofluorometer (Shimadzu, Kyoto, Japan) using a quartz micro-cuvette filled with a 100 μL mixture, with 5 nm excitation and emission slit widths. If the host odorant molecules could displace more than 40% of the 1-NPN fluorescence from the binding cavity of PxutCSP19, the compounds would be continuously added up to 36 μM with triplicates. For the binding experiments, each compound would be added into the PxutCSP19/1-NPN (each 2 μM) complex with final concentrations of 2~20 μM. […] We used the Ki values to compare the binding affinities of various ligands with the equation: Ki = [IC50]/(1 + [1-NPN]/K1-NPN), where IC50 represents the ligand concentrations displacing one half of the initial protein/1-NPN fluorescence, and [1-NPN] is the free concentration of 1-NPN at 2 μM.

[1] = Wildtype (WT), ligand up to 20 μM or 36 μM, displacing half of protein/1-NPN fluorescence, read-out: IC50

Sequence of PxutCSP19 (A0A194QJK0 entry or part of it): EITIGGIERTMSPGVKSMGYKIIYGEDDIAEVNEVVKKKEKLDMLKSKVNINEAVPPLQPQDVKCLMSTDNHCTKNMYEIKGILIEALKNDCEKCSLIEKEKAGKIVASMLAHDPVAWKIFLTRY

Molecule	IC50	inhibition at 20 µM	also measured
CCC/C=C/C=O [(E)-2-Hexenal]	> 20 µM	33.8%	
COP(=O)(NC(C)=O)SC (stereo not drawn) [Acephate, reference compound]	> 20 µM	37.1%	
C/C(=N\C#N)N(C)Cc1ccc(Cl)nc1 [Acetamiprid, reference compound]	> 20 µM	42.9%	
C/C=C(\C)C(=O)O[C@H]1C[C@@H](OC(C)=O)[C@@]2(C(=O)OC)CO[C@H]3[C@@H](O)[C@@](C)([C@]45O[C@@]4(C)[C@H]4C[C@@H]5O[C@@H]5OC=C[C@@]54O)[C@H]4[C@]1(CO[C@]4(O)C(=O)OC)[C@@H]32 [Azadirachtin, reference compound]	> 20 µM	34.5%	
O=Cc1ccccc1 [Benzaldehyde]	> 20 µM	36.9%	
C=C1C2CCC(C2)C1(C)C (stereo not drawn) [Camphene]	> 20 µM	34.5%	
CNC(=O)c1cc(Cl)cc(C)c1NC(=O)c1cc(Br)nn1-c1ncccc1Cl [Chlorantraniliprole, reference compound]	> 20 µM	43.6%	
O=C(NC(=O)c1ccccc1Cl)Nc1ccc(Cl)cc1 [Chlorbenzuron, reference compound]			F.D. (fluorescent displacement rate of ligands) (Wildtype (WT)): 42.75%; IC50 [1]: > 20 µM
CC(C)=CCC/C(C)=C/C=O [Citral]	> 20 µM	39.7%	
CC(C)=CCC[C@@H](C)CC=O [Citronellal]			F.D. (fluorescent displacement rate of ligands) (Wildtype (WT)): 34.20%; IC50 [1]: > 20 µM
CC1(C)[C@H](C(=O)O[C@H](C#N)c2cccc(Oc3ccccc3)c2)[C@@H]1C=C(Br)Br [Deltamethrin, reference compound]	> 20 µM	39.3%	
O=C(NC(=O)c1c(F)cccc1F)Nc1ccc(Cl)cc1 [Diflubenzuron, reference compound]	> 20 µM	27%	
N#Cc1nn(-c2c(Cl)cc(C(F)(F)F)cc2Cl)c(N)c1[S+]([O-])C(F)(F)F (stereo not drawn) [Fipronil, reference compound]	> 20 µM	37.5%	
CC(C)=CCC/C(C)=C/CO [Geraniol]		39%	
O=[N+]([O-])NC1=NCCN1Cc1ccc(Cl)nc1 [Imidacloprid, reference compound]	> 20 µM	41.7%	
c1ccc2[nH]ccc2c1 [Indole]	> 20 µM	39%	
C=C(C)[C@H]1CC=C(C)CC1 [Limonene]			F.D. (fluorescent displacement rate of ligands) (Wildtype (WT)): 20.36%; IC50 [1]: > 20 µM
O=C1CCC[C@@H]2[C@H]3CCCN4CCC[C@@H](CN12)[C@@H]34 [Matrine, reference compound]	> 20 µM	40%	
CNC(=O)ON=C(C)SC [Methomyl, reference compound]	> 20 µM	45.4%	
COC(=O)c1ccccc1C [Methyl o-toluate]			F.D. (fluorescent displacement rate of ligands) (Wildtype (WT)): 37.28%; IC50 [1]: > 20 µM

Molecule	IC50	inhibition at 20 µM	also measured
CCCCCCCC=O [Octanal]	> 20 µM	22.8%	
O=CCc1ccccc1 [Phenylacetaldehyde]	> 20 µM	27.3%	
CCCSP(=O)(OCC)Oc1ccc(Br)cc1Cl (stereo not drawn) [Profenofos, reference compound]	> 20 µM	41%	
CC1(C)[C@H]2O[C@H]2[C@H]2[C@](C)(O)[C@@H]3CC[C@@H]4[C@@H](O)[C@@]3(C[C@@H](O)[C@@]21O)C[C@@]4(C)O [Rhodojaponin III, reference compound]			F.D. (fluorescent displacement rate of ligands) (Wildtype (WT)): 38.52%; IC50 [1]: > 20 µM
CCc1ccc(C(=O)NN(C(=O)c2cc(C)cc(C)c2)C(C)(C)C)cc1 [Tebufenozide, reference compound]	> 20 µM	48.5%	
CN1COCN(Cc2cnc(Cl)s2)/C1=N\[N+](=O)[O-] [Thiamethoxam, reference compound]	> 20 µM	44.6%	
CS/C(C)=N\OC(=O)N(C)SN(C)C(=O)O/N=C(\C)SC [Thiodicarb, reference compound]	> 20 µM	37.4%	
COP(=O)(OC)C(O)C(Cl)(Cl)Cl (stereo not drawn) [Trichlorphon, reference compound]			F.D. (fluorescent displacement rate of ligands) (Wildtype (WT)): 33.61%; IC50 [1]: > 20 µM
O=C(NC(=O)c1ccccc1Cl)Nc1ccc(OC(F)(F)F)cc1 [Triflumuron, reference compound]	> 20 µM	28%	
CCCCCCCCCCC=O [Undecanal]	> 20 µM	27.7%	
Cc1ccc(C(C)C)cc1 [p-Isopropyl toluene]			F.D. (fluorescent displacement rate of ligands) (Wildtype (WT)): 32.32%; IC50 [1]: > 20 µM
C/C1=C\CC/C(C)=C/CC(C)(C)/C=C/C1 [α-Caryophyllene]			F.D. (fluorescent displacement rate of ligands) (Wildtype (WT)): 7.48%; IC50 [1]: > 20 µM
CC1(C)C(C=C(Cl)Cl)C1C(=O)OC(C#N)c1cccc(Oc2ccccc2)c1 (stereo not drawn) [α-Cypermethrin, reference compound]	> 20 µM	5.65%	
CC1=CCC2CC1C2(C)C (stereo not drawn) [α-Pinene]	> 20 µM	34.6%	
CC1=CC=C(C(C)C)CC1 [α-Terpinene]	> 36 µM	> 40%	1-NPN fluorescence displaced: less than 50%
C=C1CC/C=C(\C)CC[C@@H]2[C@@H]1CC2(C)C [β-Caryophyllene]			binding with PxutCSP19 (in words): no binding
C=C[C@]1(C)CC[C@@H](C(=C)C)C[C@H]1C(=C)C [β-Elemene]			binding with PxutCSP19 (in words): no binding
Emamectin benzoate [reference compound]			F.D. (fluorescent displacement rate of ligands) (Wildtype (WT)): 46.98%; IC50 [1]: > 20 µM
Farnesene			F.D. (fluorescent displacement rate of ligands) (Wildtype (WT)): 23.21%; IC50 [1]: > 20 µM

Second part, led by results:

IC50	inhibition at 20 µM	Molecule	also measured
> 20 µM	12.4%	C=CC(C)(O)CCC=C(C)CCC=C(C)C (mixture of isomers) [Nerolidol]	
> 20 µM	39%	CCCCCCO [1-Hexanol]	
> 20 µM	35.1%	CC1=CCC2C(C1)C2(C)C (stereo not drawn) [3-Carene]	
> 36 µM	> 40%	CC1=CCC(O)(C(C)C)CC1 (stereo not drawn) [4-Terpineol]	1-NPN fluorescence displaced: less than 50%
> 20 µM	38.4%	CC1=CC[C@@H]2C[C@H]1C2(C)C [(1R)-(+)-α-Pinene]	
> 20 µM	35.6%	CCC/C=C/CO [(E)-2-Hexen-1-ol]	
> 20 µM	35.8%	CC/C=C\CCO [(Z)-3-Hexen-1-ol]	
> 20 µM	37.4%	Cc1ccc(C(C)C)cc1O [Carvacrol]	
> 20 µM	28.7%	CCCCCCCCCC=O [Decanal]	
> 20 µM	37.6%	CCOC(C)=O [Ethyl acetate]	
> 20 µM	28.7%	CCCC(=O)OCC [Ethyl butyrate]	
> 20 µM	27%	CC(C)=CCC/C(C)=C/CC/C(C)=C/CO [Farnesol]	
> 20 µM	33.3%	CC(=O)OC/C=C(\C)CCC=C(C)C [Geranyl acetate]	
> 20 µM	21.1%	CCCCCC=O [Hexanal]	
> 20 µM	32.4%	C=CC(=C)CCC=C(C)C [Myrcene]	
> 20 µM	29.3%	CCCCCCCCC=O [Nonanal]	
> 20 µM	39.7%	OCCc1ccccc1 [Phenethyl alcohol]	
> 20 µM	33.5%	C=C1CCC2(C(C)C)CC12 (stereo not drawn) [Sabinene]	
> 20 µM	34.1%	CC1=CC[C@H](C(C)C)C=C1 [α-Phellandrene]	
> 36 µM	> 40%	CC1=CC[C@@H](C(C)(C)O)CC1 [α-Terpineol]	1-NPN fluorescence displaced: less than 50%
> 20 µM	31.2%	C=C1CCC2CC1C2(C)C (stereo not drawn) [β-Pinene]	
> 36 µM	> 40%	CC1=CCC(C(C)C)=CC1 [γ-Terpinene]	1-NPN fluorescence displaced: less than 50%
